Data set [1] relates to carnitine shuttle. Kind of data set: Stable isotope tracer study of palmitate metabolism in cultured cells. Format: cell-based. On the procedure: (§1) Dose-response experiments with VB were performed in vitro and in vivo to examine metabolic effects of VB. The mitochondrial carnitine shuttle is the top metabolic pathway associated with VB in human HepG2 cells. […] The carnitine shuttle uses carnitine for transport of long-chain fatty acyl chains into mitochondria for fatty acid β-oxidation. […] The effect of VB on inhibition of palmitate-dependent oxygen consumption rate is confirmed by stable isotope tracer studies of palmitate metabolism, which show VB inhibits formation of ^13C16 palmitoylcarnitine from ^13C16 palmitate and decreases the formation of ^13C2 acetyl-CoA (FIG. 2D). […] Thus, VB inhibits mitochondrial long chain fatty acid metabolism through effects on carnitine and operation of the carnitine shuttle.

The test system of data set [2] is human HepG2 cells. Briefly: Cell content of carnitine in HepG2 cells, VB dose-response. As to conditions: VB at 10 μM, vs control cells. Format: cell-based. The method, then:
as §1

The subject of data set [3] is conventional mice. Kind of data set: 8-week VB treatment of conventional mice on Western or control diet: adiposity. Format: in vivo. From the text:
(n=5 per group, one-tailed t-test).
The relative increases are most pronounced in VAT, where fat mass in VB-treated mice on a Western diet was increased 80% in male mice and 60% in female mice compared to Western diet alone. […] The long-term consequences of VB inhibition of mitochondrial β-oxidation of fatty acids therefore include effects on body composition in mice receiving Western diet, with specific and pronounced effects on visceral adipose tissue mass.
(§2) VB effects in fasting are particularly intriguing as a mechanism causing obesity because decreasing mitochondrial β-oxidation of lipids mobilized from adipose tissue during fasting could cause a long-term increase in fat deposition. Therefore, experiments were performed to determine whether long-term VB treatment could increase weight gain and adiposity in mice. This was tested this in both GF and conventional mice, with or without a high-fat/sugar WD. Backhead et al. report a resistance to diet-induced obesity in germ-free mice. PNSA, 104 (3), 2007. […] Furthermore, VB treatment exacerbated the development of hepatic steatosis in these mice (FIG. 4E). Similarly, VB increased adipose tissue fat mass (VAT, SubQ, BAT) in conventional mice after 8 weeks with the WD. The relative increases were most pronounced in white adipose compartments (VAT, SubQ) where fat mass in VB treated GF and conventional mice on a WD was increased over 80% compared to WD alone.
(§3) Although WD-fed mice gained more weight than control fed mice, no differences in circulating VB were observed between WD or control-diet-fed conventional mice. These effects were not observed in GF or conventional mice fed the control diet.

Data set [4] has as its system mice. As to conditions: cited from earlier work.
The subject of data set [5] is PPAR-response element. Kind of data set: PPAR-response element-linked luciferase activity. Format: cell-based. From the text:
An alternative interpretation of VB activity involves an adaptive response termed mitohormesis, a process by which a minor impairment increases gene expression of mitochondrial systems which improve metabolic function of mitochondria. […] With this interpretation, VB-induced lipid accumulation could drive activity of SIRT1, PGC-1a and PPAR-a pathways which control carnitine homeostasis, mitochondrial bioenergetics, and lipid metabolism. […] Thus, VB may function through a mitohormesis response mechanism and in conjunction with diet and aging, contribute to age dependent changes in adiposity.

Data set [6] concerns GF mice. Kind of data set: 6-week VB treatment of germ-free (GF) mice on Western or control diet. Format: in vivo. The method, then:
FIG. 4A illustrates experiments on long-term VB treatment in GF mice. Male GF mice were administered PBS or VB in conjunction with a control diet (CD) or WD for 6 weeks with body weight recorded as percentage weight gain (two-way repeat measures ANOVA with multiple comparisons per day.
as §2, §3

In data set [7] the test system is mouse cardiomyocytes. As to conditions: cited from earlier work.
The target in data set [8] is T1, γ-butyrobetaine hydroxylase (Homo sapiens, UniProt O75936).
T1 sequence (O75936 1-387): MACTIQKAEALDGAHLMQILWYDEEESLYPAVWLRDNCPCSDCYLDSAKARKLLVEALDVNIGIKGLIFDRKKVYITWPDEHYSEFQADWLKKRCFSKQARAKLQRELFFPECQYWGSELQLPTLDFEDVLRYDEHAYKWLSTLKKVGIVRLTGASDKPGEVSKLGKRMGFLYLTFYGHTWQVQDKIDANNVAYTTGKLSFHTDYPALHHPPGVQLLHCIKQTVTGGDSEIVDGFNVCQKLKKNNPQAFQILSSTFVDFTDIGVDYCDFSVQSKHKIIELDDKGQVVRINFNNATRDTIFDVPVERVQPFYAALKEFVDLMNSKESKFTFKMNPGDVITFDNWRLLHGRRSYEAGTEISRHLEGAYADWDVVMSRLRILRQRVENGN
As to conditions: cited from earlier work.

Data set [9] deals with mice. Briefly: VB treatment of mice for 3 days ± fasting: hepatic lipid accumulation. Format: in vivo. The method, then:
Mice of each sex were given daily intraperitoneal injection with saline (n=5) or VB at 100 mg/kg (n=5) for 3 days±fasting.
(§4) As observed in cells, the carnitine shuttle is the top metabolic pathway associated with VB-treatment in mice. VB treatment decreases circulating (FIG. 2A), hepatic (FIG. 2B), heart, and brain carnitine. Furthermore, VB treatment alters circulating and systemic acylcarnitine and acyl-CoA profiles. In whole tissue, VB increases hepatic and cardiac palmitoyl-CoA and decreases other short, medium, and long-chain acylcarnitines and CoAs under fasted conditions. In mitochondria, VB decreases the abundance of long-chain fatty acyl-CoAs and carnitines, consistent with a decrease in long-chain fatty acid β oxidation. VB also decreases circulating and hepatic β-hydroxybutyrate, a product of mitochondrial β-fatty acid oxidation.

In data set [10] the test system is mice. Briefly: VB treatment of mice, daily intraperitoneal injection for 1 week: carnitine and metabolite profiles. Format: in vivo. On the procedure:
Mice of each sex were given daily intraperitoneal injection with saline (n=5), VB at 10 mg/kg (n=3) or VB at 100 mg/kg (n=8) for 1 week. Kruskal-Wallis test with Dunn's multiple comparisons test to identify pairwise differences in GraphPad Prism 6.0.
as §4

Data set [11] has as its system HepG2 cells. Kind of data set: Palmitate-dependent mitochondrial O2 consumption rate in HepG2 cells. Format: cell-based, human. On the procedure: […] Effect of VB is most pronounced in the spare capacity measured after addition of the uncoupler FCCP.
as §1

The nature of data set [12]: Concentrations of VB in tissues and circulation of conventional mice (mass spectrometry). Format: in vivo. As to conditions: endogenous. From the text:
To identify microbial metabolites that could impact mitochondrial function, the metabolome of liver and liver mitochondria was examined in mice with an intact microbiome (“conventionalized” mice in which germ-free mice were reconstituted with microbiome) compared to liver and liver mitochondria from germ-free mice (FIG. 1A). The top discriminatory metabolite has an accurate mass m/z of 160.1332 by ultra-high-resolution mass spectrometry, corresponding to predicted elemental composition C8H18NO2. This metabolite is found in liver and other tissues, portal and peripheral circulation, and cecum of conventional but not germ-free mice (FIG. 1B). Authentic standard co-elution and MS/MS experiments show the identity of 160.1332 m/z to be delta-valerobetaine (VB) (FIG. 1C). Concurrent analyses of propionylcholine and valine betaine, similar molecules with identical elemental compositions, conclusively excluded these structures. VB was not present in the mouse diet and was not detectable in other samples collected from GF mice. […] Concentrations were 9-26 μM in the portal vein, with higher concentrations in the liver (75-190 μmol/kg wet weight) and lower concentrations in the peripheral plasma (2-10 μM) indicating tissue accumulation.

Entries after “also recorded” stand apart in the source; their conditions may differ.

Regarding `C[N+](C)(C)CC(O)CC(=O)[O-]` (centres unmarked) [carnitine, reference compound], in [1] (addition of carnitine to VB-treated cells), the “Rescue of VB effect on cellular carnitine and palmitoylcarnitine formation” value was “restores cellular carnitine and formation of palmitoylcarnitine”.

`C[N+](C)(C)CCCCC(=O)[O-]` [VB, 5-(trimethylammonio) pentanoate]: the “Cell content of carnitine” value in data set [2] was “decreased to half that of control cells”. Besides, in data set [3] (8 weeks), the “Weight of brown adipose tissue (BAT)” value is recorded as “increased by VB in a diet dependent manner after 8-week VB treatment in males but not females; also recorded: increases brown adipose tissue (BAT) but in a less consistent manner”. In addition, in [3] (Western diet, 8 weeks), the “Weight of subcutaneous white adipose tissue (WAT)” value is “increased by VB in a diet-dependent manner; also recorded: substantial increases” and the “Weight of visceral adipose tissue (VAT)” value was “increased by VB in a diet dependent manner; also recorded: substantial increases”. Further, the “Increase of fat mass in white adipose compartments (VAT, SubQ) vs WD alone” value in data set [3] (conventional mice on WD) is reported as “over 80%”. The “Adipose tissue fat mass (VAT, SubQ, BAT)” value in data set [3] (conventional mice, WD, 8 weeks) is on record as “increased”. In addition, the “Severity of hepatic steatosis” value in [3] (conventional mice, Western diet, 8 weeks) is reported as “Trends for increase”. Also, the Total body mass entry in [3] (conventional mice, Western diet, after 8 weeks, not p<0.05) was “Trends for increase”. Moreover, the “Effects on adiposity, steatosis and body mass on control diet” value in [3] (conventional mice, control diet) was “not observed”. Besides, the “Increase of visceral adipose tissue (VAT) fat mass vs Western diet alone” value in data set [3] (female mice, Western diet, 8 weeks) was 60%. The “Increase of visceral adipose tissue (VAT) fat mass vs Western diet alone” value in data set [3] (male mice, Western diet, 8 weeks) came out at 80%. For the same compound, the Fatty liver entry in data set [4] is listed as “exacerbates”. Moreover, the “PPAR-response element-linked luciferase activity” value in [5] is given as “dose-dependent increase”. In addition, the “Carnitine concentrations after parenteral VB dosing” value in data set [6] (GF mice) is listed as “equivalent to conventional mice”. Besides, in [6] (GF mice on WD), the “Increase of fat mass in white adipose compartments (VAT, SubQ) vs WD alone” value is recorded as “over 80%”. Besides, in data set [6] (GF mice, WD, six weeks), the “Adipose tissue fat mass in VAT, SubQ and BAT compartments vs WD alone” value is on record as “substantial increases”; the Weight gain result is reported as “increased weight gain”. Further, the “Development of hepatic steatosis” value in [6] (GF mice, WD, six weeks, liver H&E scoring) is on record as “exacerbated”. In [6] (GF mice, control diet), the “Effects on adiposity, steatosis and body mass on control diet” value is “not observed”. In addition, in data set [7], the “β-oxidation of fatty acids” value is on record as “decreases”. In addition, the γ-butyrobetaine hydroxylase activity entry in data set [8] is recorded as “inhibits”. The “Liver triglycerides (hepatic steatosis)” value in [9] (male and female mice, VB 100 mg/kg i.p. 3 days, fasted) is listed as “exacerbates hepatic steatosis; also recorded: increase”. In addition, the “Liver lipid deposits, Oil Red O staining” value in data set [9] (mice, especially under fasted conditions) was “increases lipid deposits”. For the same compound, the “Hepatic and cardiac palmitoyl-CoA” value in data set [9] (mice, whole tissue, fasted conditions) was “increases”. In addition, the “Formation of 13C16 palmitoylcarnitine from 13C16 palmitate” value in [1] (cultured cells) is “inhibits”. Besides, the “Formation of 13C2 acetyl-CoA from labeled palmitate” value in [1] (cultured cells, n=3) was “decreases”. In addition, the “Circulating and hepatic β-hydroxybutyrate” value in [10] is listed as “decreases”. In data set [10] (VB 10 or 100 mg/kg i.p. daily, 1 week), the Circulating carnitine result is reported as “decreases”. Moreover, in [10] (VB treatment), the Brain carnitine result is given as “decreases”, the Heart carnitine entry was “decreases” and the Hepatic carnitine result was “decreases”. Further, the “Triacylglycerol and diacylglycerol species in liver, heart and brain” value in data set [10] (lipid profiling) was “increases”. Further, in data set [10] (mitochondria), the “Abundance of long-chain fatty acyl-CoAs and carnitines in mitochondria” value is “decreases”. Also, the “Palmitate-dependent mitochondrial oxygen respiration (O2 consumption rate)” value in data set [11] (HepG2, 12 h without glucose, glutamine and pyruvate (mimicking fasting), VB 10 or 50 μM) is recorded as “inhibited; also recorded: dose-dependent decrease”. For the same compound, the “Basal, ADP-linked O2 consumption rate, spare capacity, non-mitochondrial respiration” value in [11] (glucose, glutamine and pyruvate present at high concentration in culture media) was “little decrease”. In addition, in data set [12], the “Concentration of VB in the cecum” value is “millimolar range”, the “Concentration of VB in the liver” value is reported as 75-190 μmol/kg wet weight, the “Concentration of VB in the peripheral plasma” value lay within 2 to 10 µM and the “Concentration of VB in the portal vein” value was 9 to 26 µM. Also, the “Concentration of VB in the colon” value in data set [12] (relative to cecum) is recorded as “somewhat lower concentrations”.
